A short description of data set [1]: 65Zn level in blood of rats after oral gavage, scintillation count. Particulars: oral 0.03 mg Zn, 15 μcuries 65Zn, mean ± standard deviation. How it is done:
(§1) The chelate thus prepared was diluted such that a 5 μl dose contained about 0.03 mg Zn and 15 μcuries of ^65 Zn activity. This dose, when administered to a standard laboratory rat weighing 150±25 gms, closely approximates the RDA of 15 mg Zn for a human being weighing about 70 kg.
(§2) Ten Sprague Dawley rats, weighing 190±10 grams each were divided into two groups of five rats. Five rats were designated the test group and the other five rats the control group.
(§3) No surgery was performed as all animals were given light doses of nembutal (40 mg/kg) to improve ease of handling and minimize injury during lavage and bloodletting.
Beginning 30 minutes after dosing and continuing at 30 minute intervals up to a period of 3 hours following dosing, 0.1 ml of blood was withdrawn from rats in both the test and control groups. The blood was then analyzed for ^65 Zn by scintillation count.

Data set [2] is described as follows: 65Zn isotope levels in urine and tissues of sacrificed rats. The procedure: as §1, §2, §3
The rats used in Example 22 were sacrificed after completion of the testing and the urine, liver, muscle, kidney, brain and spleens from the animals in each grouping were collected for comparative ^65 zinc isotope levels.

The structures appear in SMILES notation.

For `[Cl-].[Cl-].[Zn+2]` [ZnCl2], the 65Zn in blood in data set [1] (0.5 hrs after dosing) turned out to be 210 ± 11 CCPM; in data set [1] (1.0 hrs after dosing), 226 ± 14 CCPM; in data set [1] (1.5 hrs after dosing), 212 ± 26 CCPM; in data set [1] (2.5 hrs after dosing) it was 206 ± 8 CCPM; in data set [1] (3.0 hrs after dosing), 207 ± 8 CCPM. In data set [2] (brain, after 3 hour test), this compound returned a 65Zn in brain of 0 CCPM. This compound also had a 65Zn in kidney in data set [2] (kidney, after 3 hour test) of 24 CCPM. For the same compound, the 65Zn in liver in data set [2] (liver, after 3 hour test) is 50 CCPM. Also, the 65Zn in muscle in data set [2] (muscle, after 3 hour test) is on record as 0 CCPM. In addition, the 65Zn in spleen in data set [2] (spleen, after 3 hour test) came out at 16 CCPM. In addition, the “excretion of zinc compared with the chelated form” value in data set [2] (urine) is “excreted more readily”. In data set [2] (urine, after 3 hour test), the 65Zn in urine is listed as 38 CCPM.

These data come from patent US5292729A, “II-bond aromatic vitamin chelates” (Albion International, Inc., priority 1992, dated 1994).
